Where two headings read alike, the source gives them in different places.
Experiments:
[1] = cited from earlier work
[2] = Procedure: Preparation of FaSSIF solution (fasted state simulated intestinal fluid, pH 6.5): 0.42 g of NaOH, 3.44 g of NaH2PO4, and 6.19 g of NaCl were added into a beaker before 900 mL of purified water was added. The pH was adjusted and the volume was brought to 1 L with purified water. 2.24 g of FaSSIF powder was added into the 1-L buffer.
Solubility measurement: 400 μL of the FaSSIF solution was added into a scintillation flask, and a small amount of the neratinib-cyclodextrin composition powder was gradually added at room temperature with magnetic stirring until a precipitate was observed. The addition amount of the powder was recorded. The solubility of neratinib maleate was calculated from the loading amount of the powder. Dissolution measurement of the neratinib maleate substance (API): 400 μL of the FaSSIF solution was added into a scintillation flask. An excessive amount of neratinib maleate substance was added.

CCOc1cc2ncc(C#N)c(Nc3ccc(OCc4ccccn4)c(Cl)c3)c2cc1NC(=O)/C=C/CN(C)C [neratinib, (E)-N-[4-[3-chloro-4-(pyridin-2-ylmethoxy)anilino]-3-cyano-7-ethoxyquinolin-6-yl]-4-(dimethylamino) but-2-enamide]
bioavailability ([1]; fasting conditions in humans): < 17%
decrease of area under curve (AUC) without the high-fat meal ([1]; humans, approved tablet): 2.2 times

neratinib maleate
solubility of neratinib maleate ([2]; FaSSIF, excess substance, stirred at room temperature 48 h, supernatant by HPLC): 7.4 µg/mL
solubility of neratinib maleate ([2]; neutral conditions (pH 6.5)): 7.4 µg/mL

— patent US12263226B1, “Neratinib-cyclodextrin composition and method for preparing same” (Hangzhou Jitai Pharmaceutical Technology Co., Ltd, priority 2024, dated 2025)
